Test results taken from ChEMBL document CHEMBL3217504, “Potent growth inhibitory activity of ()-platencin towards multi-drug-resistant and extensively drug-resistant Mycobacterium tuberculosis” (2013).
≈ marks a conversion by molar mass, not a printed value.

Legend:
Format in all cases: functional
[1] = test system: Mycobacterium tuberculosis; assay: Antimycobacterial activity against streptomycin, ethambutol, kanamycin, isoniazid, rifabutin, rifampicin, levofloxacin, and ciprofloxacin-resistant Mycobacterium tuberculosis LV19 by microbroth dilution method
[2] = test system: Mycobacterium tuberculosis; assay: Ratio of MBC99.9 to MIC for isoniazid, rifampicin, and rifabutin-resistant Mycobacterium tuberculosis LV2
[3] = test system: Mycobacterium tuberculosis; assay: Ratio of MBC99.9 to MIC for streptomycin, ethambutol, kanamycin, isoniazid, rifabutin, rifampicin, levofloxacin, and ciprofloxacin-resistant Mycobacterium tuberculosis LV19
[4] = test system: Mycobacterium tuberculosis; assay: Antimycobacterial activity against isoniazid, rifampicin, and rifabutin-resistant Mycobacterium tuberculosis LV2 by microbroth dilution method

C=C1C[C@@]23C=CC(=O)[C@@](C)(CCC(=O)Nc4c(O)ccc(C(=O)O)c4O)[C@@H]2C[C@@H]1CC3 (racemic) [PLATENCIN]
MIC [1]: 1 µg/mL (≈ 2.35 µM)
Ratio [2]: >64
Ratio [3]: >64
MIC [4]: 1 µg/mL (≈ 2.35 µM)
